Patent US8975398B2, “NAMPT inhibitors” (AbbVie Inc., priority 2012, dated 2015)

Legend:
PC3 cells = experiment: NAMPT Cell Proliferation Assay (Cell Titer Glo; also performed in the presence of 0.3 mM nicotinamide mononucleotide); type: cell-based; conditions: Homo sapiens, PC-3, 120 h, 5 days incubation, cell viability by Cell Titer Glo
Protocol: NAMPT Cell Proliferation Assay
PC3 cells were seeded in 96-well black plates (Corning #3904) at 500 cells/well in 90 μl of RPMI media containing 10% heat-inactivated FBS and incubated overnight at 37° C. and 5% CO2 to allow cells to attach to wells. The following day, test compounds were serially diluted in neat DMSO to 1000× final concentrations prior to dilution with RPMI media to 10× and 1% DMSO. Ten μL of the 10× compounds were then transferred to wells containing cells to produce a dose response of 10-fold dilutions from 10 μM to 1×10^−5 μM. Cells were incubated for 5 days at 37° C. and 5% CO2, then cell viability was measured using Cell Titer Glo reagent (Promega #G7571). Percent inhibition values were calculated and fitted to a sigmoidal dose response curves using Assay Explorer software to determine IC50s.

[1] = biological target: NAMPT (human, recombinant, C-terminally His-tagged) (Homo sapiens, UniProt P43490); experiment: Time-Resolved Fluorescence Resonance Energy Transfer (TR-FRET) Binding Assay of NAMPT; conditions: 6.8 nM NAMPT, 200 nM probe, equilibrated 3 hours, absence of substrates
NAMPT (human, recombinant, C-terminally His-tagged), sequence (P43490 whole entry): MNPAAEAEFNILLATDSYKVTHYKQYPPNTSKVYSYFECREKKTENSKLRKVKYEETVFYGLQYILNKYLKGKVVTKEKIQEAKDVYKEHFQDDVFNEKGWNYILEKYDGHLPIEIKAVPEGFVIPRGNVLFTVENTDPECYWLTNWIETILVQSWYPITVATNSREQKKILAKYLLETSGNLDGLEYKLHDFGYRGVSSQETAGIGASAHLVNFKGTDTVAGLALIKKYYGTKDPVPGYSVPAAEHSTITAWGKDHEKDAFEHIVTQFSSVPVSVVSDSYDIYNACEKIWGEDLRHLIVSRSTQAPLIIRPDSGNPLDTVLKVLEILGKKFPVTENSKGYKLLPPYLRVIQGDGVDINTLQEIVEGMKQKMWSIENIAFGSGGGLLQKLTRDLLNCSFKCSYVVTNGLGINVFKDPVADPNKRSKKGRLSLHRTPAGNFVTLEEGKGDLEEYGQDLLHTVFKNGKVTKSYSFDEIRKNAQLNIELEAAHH
Method in brief: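 Recombinant C-terminally His-tagged human NAMPT (6.8 nM) incubated 3 h at room temperature with 200 nM Oregon Green 488–labelled nicotinamide-competitive probe and 1 nM Tb-anti-His antibody in HEPES pH 7.5, 2% DMSO. TR-FRET ratio Em520/Em495 normalized to controls; IC50 from four-parameter logistic fit.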

NAMPT = NAMPT (Homo sapiens, UniProt P43490); experiment: Time-Resolved Fluorescence Resonance Energy Transfer (TR-FRET) Binding Assay of NAMPT with PRPP; conditions: 2 nM NAMPT, 2 nM probe, 200 uM PRPP and 2.5 mM ATP, equilibrated 16 hours
NAMPT, sequence (P43490 whole entry): as above
Method in brief: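 Final mix: 2 nM NAMPT, 2 nM probe, 1 nM Tb-anti-His antibody, 200 uM PRPP, 2.5 mM ATP, 2% DMSO in 1× assay buffer. Equilibrated 16 hours before TR-FRET read, allowing possible enzymatic modification of compounds.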

| SMILES | IC50 (PC3 cells) [nM] | IC50 [1] [nM] | IC50 (NAMPT) [nM] |
| --- | --- | --- | --- |
| O=C(Nc1ccc(CC2CCN(C(=O)CC3CC3)CC2)cc1)C1CN(c2cccnn2)C1 [Example 956, N-(4-{[1-(cyclopropylacetyl)piperidin-4-yl]methyl}phenyl)-1-(pyridazin-3-yl)azetidine-3-carboxamide] | 6.4 |  |  |
| CCC1CCCCN1CCNC(=O)c1ccc(NC(=O)C2CN(c3cccnn3)C2)cc1 (stereo not shown) [Example 976, N-(4-{[2-(2-ethylpiperidin-1-yl)ethyl]carbamoyl}phenyl)-1-(pyridazin-3-yl)azetidine-3-carboxamide] | 61.2 |  |  |
| CCC(C)(C)C(=O)N1CCC(Cc2ccc(NC(=O)C3CN(c4cccnn4)C3)cc2)CC1 [Example 930, N-(4-{[1-(2,2-dimethylbutanoyl)piperidin-4-yl]methyl}phenyl)-1-(pyridazin-3-yl)azetidine-3-carboxamide] | 2.7 |  |  |
| CC(C)CC(=O)N1CCC(Cc2ccc(NC(=O)C3CN(c4cccnn4)C3)cc2)CC1 [Example 966, N-(4-{[1-(3-methylbutanoyl)piperidin-4-yl]methyl}phenyl)-1-(pyridazin-3-yl)azetidine-3-carboxamide] | 3.23 |  |  |
| Cn1nc(C(F)(F)F)cc1-c1ccc(NC(=O)C2CN(c3cccnn3)C2)cc1 [Example 874, N-{4-[1-methyl-3-(trifluoromethyl)-1H-pyrazol-5-yl]phenyl}-1-(pyridazin-3-yl)azetidine-3-carboxamide] | 71.1 |  |  |
| Cc1ccc(N2CC(C(=O)Nc3ccc(O[C@@H]4CCN(C(=O)C(C)C)C4)cc3)C2)nn1 [Example 916, N-(4-{[(3R)-1-(2-methylpropanoyl)pyrrolidin-3-yl]oxy}phenyl)-1-(6-methylpyridazin-3-yl)azetidine-3-carboxamide] | 646 |  |  |
| CC1(CNC(=O)c2ccc(NC(=O)C3CN(c4cccnn4)C3)cc2)COC1 [Example 999, N-(4-{[(3-methyloxetan-3-yl)methyl]carbamoyl}phenyl)-1-(pyridazin-3-yl)azetidine-3-carboxamide] | 250 |  |  |
| CC[C@H](C)NC(=O)c1ccc(NC(=O)C2CN(c3cccnn3)C2)cc1 [Example 978, N-{4-[(2S)-butan-2-ylcarbamoyl]phenyl}-1-(pyridazin-3-yl)azetidine-3-carboxamide] | 1070 |  |  |
| COCC(=O)N1CCC(c2ccc(NC(=O)C3CN(c4cccnn4)C3)cc2)CC1 [Example 333, N-{4-[1-(methoxyacetyl)piperidin-4-yl]phenyl}-1-(pyridazin-3-yl)azetidine-3-carboxamide] |  | 50.9 | 0.631 |
| O=C(Nc1ccc(C2CCN(C(=O)C3CCCC3)CC2)cc1)C1CN(c2cccnc2)C1 [Example 138, N-{4-[1-(cyclopentylcarbonyl)piperidin-4-yl]phenyl}-1-(pyridin-3-yl)azetidine-3-carboxamide] |  | 21.8 | 0.445 |
| Cc1ncccc1N1CC(C(=O)Nc2ccc(C3CCN(C(=O)C(C)(C)O)CC3)cc2)C1 [Example 71, N-{4-[1-(2-hydroxy-2-methylpropanoyl)piperidin-4-yl]phenyl}-1-(2-methylpyridin-3-yl)azetidine-3-carboxamide] |  | 41.2 | 14.6 |
| O=C(Nc1ccc(C2CCN(C(=O)c3cccc(F)c3)CC2)cc1)C1CN(c2cccnn2)C1 [Example 348, N-{4-[1-(3-fluorobenzoyl)piperidin-4-yl]phenyl}-1-(pyridazin-3-yl)azetidine-3-carboxamide] |  | 15.3 | 0.628 |
| CC(C)(O)C(=O)N1CCC(c2ccc(NC(=O)C3CN(c4ccnnc4)C3)cc2)CC1 [Example 85, N-{4-[1-(2-hydroxy-2-methylpropanoyl)piperidin-4-yl]phenyl}-1-(pyridazin-4-yl)azetidine-3-carboxamide] |  | 32.2 | 17 |
| CCC(C)CC(=O)N1CCC(c2ccc(NC(=O)C3CN(c4cccnc4)C3)cc2)CC1 (stereo not shown) [Example 99, N-{4-[1-(3-methylpentanoyl)piperidin-4-yl]phenyl}-1-(pyridin-3-yl)azetidine-3-carboxamide] |  | 13.5 | 0.169 |
| CC(=O)N1CCC(c2ccc(NC(=O)C3CN(c4cccnn4)C3)cc2)CC1 [Example 316, N-[4-(1-acetylpiperidin-4-yl)phenyl]-1-(pyridazin-3-yl)azetidine-3-carboxamide] |  | 104 | 0.924 |
| O=C(Nc1ccc(OC2CCN(C(=O)Cc3ccc(F)cc3F)CC2)cc1)C1CN(c2ccnnc2)C1 [Example 277, N-[4-({1-[(2,4-difluorophenyl)acetyl]piperidin-4-yl}oxy)phenyl]-1-(pyridazin-4-yl)azetidine-3-carboxamide] |  | 62.4 | 26.7 |
| Cc1ncccc1N1CC(C(=O)Nc2ccc(C3CCN(C(=O)C4CC4C)CC3)cc2)C1 (stereo not shown) [Example 163, N-(4-{1-[(2-methylcyclopropyl)carbonyl]piperidin-4-yl}phenyl)-1-(2-methylpyridin-3-yl)azetidine-3-carboxamide] |  | 166 | 83.1 |
| CN(C)CCC(=O)N1CCC(c2ccc(NC(=O)C3CN(c4cccnc4)C3)cc2)CC1 [Example 107, N-{4-[1-(N,N-dimethyl-beta-alanyl)piperidin-4-yl]phenyl}-1-(pyridin-3-yl)azetidine-3-carboxamide] |  | 163 | 0.169 |
| O=C(Nc1ccc(OC2CCN(C(=O)c3cscn3)CC2)cc1)C1CN(c2cccnn2)C1 [Example 218, 1-(pyridazin-3-yl)-N-(4-{[1-(1,3-thiazol-4-ylcarbonyl)piperidin-4-yl]oxy}phenyl)azetidine-3-carboxamide] |  | 265 | 1.64 |
| CCCC(=O)N1CCC(Oc2ccc(NC(=O)C3CN(c4cccnc4)C3)cc2)CC1 [Example 43, N-{4-[(1-butanoylpiperidin-4-yl)oxy]phenyl}-1-(pyridin-3-yl)azetidine-3-carboxamide] |  | 86.5 | 0.803 |
| CC1(C(=O)N2CCC(c3ccc(NC(=O)C4CN(c5cccnc5)C4)cc3)CC2)CC1 [Example 110, N-(4-{1-[(1-methylcyclopropyl)carbonyl]piperidin-4-yl}phenyl)-1-(pyridin-3-yl)azetidine-3-carboxamide] |  | 6.63 | 0.169 |
| O=C(Nc1ccc(OC2CN(C(=O)C3CCC(F)(F)CC3)C2)cc1)C1CN(c2ccnnc2)C1 [Example 202, N-[4-({1-[(4,4-difluorocyclohexyl)carbonyl]azetidin-3-yl}oxy)phenyl]-1-(pyridazin-4-yl)azetidine-3-carboxamide] |  | 117 | 89.5 |
| O=C(Nc1ccc(C2CCN(C(=O)Cc3ccc(Cl)cc3)CC2)cc1)C1CN(c2cccnn2)C1 [Example 370, N-(4-{1-[(4-chlorophenyl)acetyl]piperidin-4-yl}phenyl)-1-(pyridazin-3-yl)azetidine-3-carboxamide] |  | 30.5 | 0.555 |
| O=C(Nc1ccc(OC2CCN(C(=O)c3ccoc3)CC2)cc1)C1CN(c2cccnc2)C1 [Example 54, N-(4-{[1-(furan-3-ylcarbonyl)piperidin-4-yl]oxy}phenyl)-1-(pyridin-3-yl)azetidine-3-carboxamide] |  | 72.1 | 0.806 |
| O=C1CC[C@@H](C(=O)N2CCC(c3ccc(NC(=O)C4CN(c5cccnc5)C4)cc3)CC2)N1 [Example 114, N-{4-[1-(5-oxo-L-prolyl)piperidin-4-yl]phenyl}-1-(pyridin-3-yl)azetidine-3-carboxamide] |  | 83.9 | 0.247 |
| O=C(Nc1ccc(C2CCN(C(=O)CC3CCCC3)CC2)cc1)[C@H]1CCN(c2ccnnc2)C1 [Example 142, (3S)—N-{4-[1-(cyclopentylacetyl)piperidin-4-yl]phenyl}-1-(pyridazin-4-yl)pyrrolidine-3-carboxamide] |  | 1560 | 32.8 |
| CC(C)(O)C(=O)N1CCC(c2ccc(NC(=O)C3CN(c4cccnc4)C3)cc2)CC1 [Example 20, N-{4-[1-(2-hydroxy-2-methylpropanoyl)piperidin-4-yl]phenyl}-1-(pyridin-3-yl)azetidine-3-carboxamide] |  | 6.74 | 0.296 |
| O=C(Nc1ccc(C2CCN(C(=O)CC3CCCCC3)CC2)cc1)C1CN(c2cccnc2)C1 [Example 119, N-{4-[1-(cyclohexylacetyl)piperidin-4-yl]phenyl}-1-(pyridin-3-yl)azetidine-3-carboxamide] |  | 6.12 | 0.169 |
| O=C(Nc1ccc(OC2CN(C(=O)Cc3ccc(F)cc3)C2)cc1)C1CN(c2ccnnc2)C1 [Example 203, N-[4-({1-[(4-fluorophenyl)acetyl]azetidin-3-yl}oxy)phenyl]-1-(pyridazin-4-yl)azetidine-3-carboxamide] |  | 34.2 | 21.1 |
| CCCCN1CCC(c2ccc(NC(=O)C3CN(c4cccnc4)C3)cc2)CC1 [Example 91, N-[4-(1-butylpiperidin-4-yl)phenyl]-1-(pyridin-3-yl)azetidine-3-carboxamide] |  | 992 | 0.868 |
